Experimental data as given in US9655912B2, “Reduction of gastrointestinal tract colonisation by campylobacter” (priority 2012, dated 2017).

B1: MOMP(+): major outer membrane protein purified under native conditions from C. jejuni strain NCTC11168 (protein)
chain: TPLEEAIKDVDVSGVLRYRYDTGNFDKNFVNNSNLNNSKQDHKYRAQVNFSAAIADNFKAFVQFDYNAADGGYGANGIKNDQKGLFVRQLYLTYTNEDVATSVIAGKQQLNLIWTDNAIDGLVGTGVKVVNNSIDGLTLAAFAVDSFMAAEQGADLLEHSNISTTSNQAPFKVDSVGNLYGAAAVGSYDLAGGQFNPQLWLAYWDQVAFFYAVDAAYSTTIFDGINWTLEGAYLGNSLDSELDDKTHANGNLFALKGSIEVNGWDASLGGLYYGDKEKASTVVIEDQGNLGSLLAGEEIFYTTGSRLNGDTGRNIFGYVTGGYTFNETVRVGADFVYGGTKTEAANHLGGGKKLEAVARVDYKYSPKLNFSAFYSYVNLDQGVNTNESADHSTVRLQALYKF

Assays:
C. jejuni = assay: ELISA: inhibition of C. jejuni adherence to BgAgs (Core-I, Core-II, H-I, H-II, Leb, Ley, Lex) by Ferric Quinate; assay type: binding, Campylobacter jejuni; settings: for Inhibition of C. jejuni binding to BgAgs: 34 μM Fe(QA)3, pre-incubation and post-treatment, ELISA
Protocol: The inhibitory potential of Ferric Quinate Fe(QA)3 on adherence of C. jejuni was analyzed by ELISA using BgAgs (Core-I, Core-II, H-I, H-II, Leb, Ley and Lex). C. jejuni was pre-incubated with 34 μM Fe(QA)3 and specific inhibition was also analyzed by post-treatment of C. jejuni with Fe(QA)3 which bound to BgAgs at the time.

C. jejuni NCTC11168-O = assay: Chicken caecal colonisation after oral challenge, Ferric Quinate as additive to water; assay type: in vivo; settings: 0.34 mM in water, 6-weeks old birds, 3 and 7 days post-challenge
Protocol: These inhibitory properties against C. jejuni adherence to BgAgs were analyzed in vivo. Ferric Quinate was used as an additive to water (0.034-0.34 mM) and as an inhibitor of C. jejuni NCTC11168 strain adherence to, and thus colonization, in the chicken intestinal tract. 6-weeks old birds (n=10 per group) were challenged with 3×10^3-5 cfu wild-type strain NCTC11168-O by oral gavage. Caecal colonisation levels were determined in birds from each group at 3 and 7 days post-challenge.

[1] = system: C. jejuni NCTC11168 strain; assay: Growth of C. jejuni in culture medium supplemented with Fe(QA)3; assay type: cell-based, Campylobacter jejuni; settings: 34 and 340 μM in culture medium
Excerpt: To further clarify the growth-effect properties of Fe(QA)3, we investigated the effect of adding Fe(QA)3 to the culture medium.

[2] = system: C. jejuni strain NCTC11168; assay: Inhibition ELISA of binding of strain NCTC11168 to H-II glycoconjugate; design: species or system Campylobacter jejuni; settings: p<0.001, FIG. 2A
Protocol: Purified MOMP from NCTC11168 (MOMP(+)), and pre-incubation of NCTC11168 bacterial cells with H-II glycoconjugate (H-II). […] B) ELISA plate was coated with a selection of BgAgs. Specific binding was calculated by subtracting the BSA (negative control) values from the BgAg absorbance at 405 nm. Strain NCTC11168 and Cj-266 (high binder strain, S3—Table 1), and corresponding ΔflaA mutants, have been examined for binding to Le^b, H-II, H-I, Le^x and Le^a. t-test confirmed the reduction in binding seen with mutants are significant (Le^b; p=2.5E-05, H-II; p=0.012, H-I; p=0.001, Le^x; p=0.029 and Le^a; p=0.000) in strain NCTC11168. However, Cj-266ΔflaA mutation had no effect on binding, which indicates the binding capacity was compensated by MOMP protein. Each group of bars from left to right: NCTC11168, 11168-ΔflaA, Cj-266, Cj-266ΔflaA. C) A double mutant (DM) of ΔflaA and single substitution of glycosylation site in MOMP protein (Thr^268 was substituted with Gly) was constructed in both strain NCTC11168 and Cj-266, and the binding to Le^b H-I and H-II was examined. […] Each group of bars from left to right: Leb, H-II, H-1.
Deletion mutant of ΔflaA in strains NCTC11168 and Cj-266 (a clinical isolate, S3—Table) were constructed.

Molecule	Inhibition of C. jejuni binding to BgAgs (C. jejuni)	Reduction of adhesion of C. jejuni to the intestinal mucosa (caecal colonisation) (C. jejuni NCTC11168-O)	Inhibition of microbial adherence, bacterial culture (MH) containing Fe(QA)3 (C. jejuni; bacteria cultured on MH containing Fe(QA)3)	Resistance concerning the binding abilities after sequential passages (C. jejuni; sequential passages (P) of bacteria to new plate containing Fe(QA)3)	Effect on growth of C. jejuni NCTC11168 [1]	Bacterial binding to H-II antigen [2]	Bacterial binding to H-II antigen ([2]; listed as purified MOMP)
O=C(O)[C@]1(O)C[C@@H](O)[C@@H](O)[C@H](O)C1 [Quinic Acid, D-(−)-quinic acid, reference compound]	no inhibition						
Ferric quinate [Fe(QA)3]	90%	2-3 Log	reproducible inhibition	didn't cause any resistance	did not affect the growth		
B1						significantly reduced	significantly inhibited
